# Measured values from ChEMBL document CHEMBL1201862, “PubChem BioAssay data set” (2004).
#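 Briefly, cells in 96-well plates were exposed to five compound concentrations for 48 h, and endpoints were estimated by linear interpolation. At the GI50, growth is halved.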 Calls of active or inactive are those of the source. No stated cut-off is given here; in the data, active = GI50 up to about 1.1 µM and inactive = higher.
# Key:
# Assay in all cases: growth of human tumour cells (NCI), 48 h
# BT-549 = system: BT-549
# CAKI-1 = system: CAKI-1
# DLD-1 = system: DLD-1
# HL-60 = system: HL-60
# KM-20L2 = system: KM-20L2
# LOX IMVI = system: LOX IMVI
# LXFL 529 = system: LXFL 529
# M19-MEL = system: M19-MEL
# MDA-MB-231 = system: MDA-MB-231
# MDA-N = system: MDA-N
# Malme-3M = system: Malme-3M
# NCI-H460 = system: NCI-H460
# OVCAR-5 = system: OVCAR-5
# PC-3 = system: PC-3
# SF-295 = system: SF-295
# SF-539 = system: SF-539
# SNB-19 = system: SNB-19
# SNB-78 = system: SNB-78
# SW-620 = system: SW-620
# U-251 = system: U-251
Structure (SMILES),GI50 (BT-549),GI50 (CAKI-1),GI50 (DLD-1),GI50 (HL-60),GI50 (KM-20L2),GI50 (LOX IMVI),GI50 (LXFL 529),GI50 (M19-MEL),GI50 (MDA-MB-231),GI50 (MDA-N),GI50 (Malme-3M),GI50 (NCI-H460),GI50 (OVCAR-5),GI50 (PC-3),GI50 (SF-295),GI50 (SF-539),GI50 (SNB-19),GI50 (SNB-78),GI50 (SW-620),GI50 (U-251)
C=C1C(C)C2C(Cc3ccccc3)NC(=O)C23C(OC(C)=O)C=CC(C)(O)C(=O)C(C)C/C=C/C3C1O (stereo not drawn),0.407 µM (active),0.129 µM (active),0.78 µM (active),4.57 µM (inactive),0.158 µM (active),0.101 µM (active),3.14 µM (inactive),16.1 µM (inactive),0.151 µM (active),15.6 µM (inactive),30.5 µM (inactive),0.258 µM (active),68.9 µM (inactive),11.7 µM (inactive),0.366 µM (active),0.117 µM (active),0.217 µM (active),0.116 µM (active),87.7 µM (inactive),0.0925 µM (active)
NC(=O)c1c[se]c(C2OC(COP(=O)(O)CP(=O)(O)OCC3OC(n4cnc5c(N)ncnc54)C(O)C3O)C(O)C2O)n1 (stereo not drawn),–,43.3 µM (inactive),55.5 µM (inactive),28.2 µM (inactive),74.5 µM (inactive),–,51.4 µM (inactive),> 100 µM (inactive),–,–,> 100 µM (inactive),44.8 µM (inactive),> 100 µM (inactive),–,53.3 µM (inactive),> 100 µM (inactive),> 100 µM (inactive),> 100 µM (inactive),30.9 µM (inactive),61 µM (inactive)
COc1ccc(Cc2nn(C3OC(COC(C)=O)C(OC(C)=O)C(OC(C)=O)C3OC(C)=O)c(=S)n(-c3ccc(OC)cc3)c2=O)cc1 (stereo not drawn),–,> 100 µM (inactive),> 100 µM (inactive),> 77.8 µM (inactive),> 100 µM (inactive),> 100 µM (inactive),–,> 100 µM (inactive),–,–,> 100 µM (inactive),> 100 µM (inactive),> 100 µM (inactive),–,> 100 µM (inactive),> 100 µM (inactive),> 100 µM (inactive),> 100 µM (inactive),> 100 µM (inactive),> 100 µM (inactive)
Cc1ccc(S(=O)(=O)OC[C@@H]2CO2)cc1,–,> 100 µM (inactive),> 100 µM (inactive),> 100 µM (inactive),> 100 µM (inactive),99.3 µM (inactive),> 100 µM (inactive),> 100 µM (inactive),–,–,> 100 µM (inactive),> 100 µM (inactive),> 100 µM (inactive),–,–,> 100 µM (inactive),> 100 µM (inactive),> 100 µM (inactive),> 100 µM (inactive),–
COc1cccc(NC(=O)CSc2nnc(-c3ccc(NC(C)=O)cc3)o2)c1,–,> 100 µM (inactive),> 100 µM (inactive),> 100 µM (inactive),94.6 µM (inactive),> 100 µM (inactive),> 100 µM (inactive),> 100 µM (inactive),–,–,> 100 µM (inactive),> 100 µM (inactive),83.2 µM (inactive),–,> 100 µM (inactive),–,–,> 100 µM (inactive),> 100 µM (inactive),> 100 µM (inactive)
CCOCNC(=O)N(COCC)COCC,–,> 100 µM (inactive),> 100 µM (inactive),> 100 µM (inactive),> 100 µM (inactive),> 100 µM (inactive),> 100 µM (inactive),> 100 µM (inactive),–,–,> 100 µM (inactive),–,> 100 µM (inactive),–,> 100 µM (inactive),> 100 µM (inactive),> 100 µM (inactive),> 100 µM (inactive),> 100 µM (inactive),–
CC(=O)NNc1nc(C)c(C(=O)NNC(=O)C(=O)Nc2ccccc2C#N)s1,–,> 100 µM (inactive),> 100 µM (inactive),> 100 µM (inactive),> 100 µM (inactive),> 100 µM (inactive),> 100 µM (inactive),> 100 µM (inactive),–,–,> 100 µM (inactive),> 100 µM (inactive),> 100 µM (inactive),–,> 100 µM (inactive),> 100 µM (inactive),> 100 µM (inactive),> 100 µM (inactive),> 100 µM (inactive),> 100 µM (inactive)
NC(=O)CCC(NCc1c2ccccc2[n+]([O-])c2ccccc12)C(=O)O (stereo not drawn),–,82.8 µM (inactive),46.9 µM (inactive),29.3 µM (inactive),52.6 µM (inactive),39.1 µM (inactive),45.1 µM (inactive),95.5 µM (inactive),–,–,81.8 µM (inactive),> 100 µM (inactive),> 100 µM (inactive),–,> 100 µM (inactive),–,> 100 µM (inactive),> 100 µM (inactive),52.5 µM (inactive),> 100 µM (inactive)
c1ccc(-c2nnc(-c3nsc4ccccc34)o2)cc1,–,–,–,> 100 µM (inactive),> 100 µM (inactive),> 100 µM (inactive),> 100 µM (inactive),> 100 µM (inactive),–,–,–,–,> 100 µM (inactive),–,–,> 100 µM (inactive),> 100 µM (inactive),98.9 µM (inactive),> 100 µM (inactive),> 100 µM (inactive)
O=C1NC(=O)C2C3C=CC(C12)C1C2C(=O)NC(=O)C2C31 (stereo not drawn),> 250 µM (inactive),203 µM (inactive),228 µM (inactive),183 µM (inactive),208 µM (inactive),241 µM (inactive),–,177 µM (inactive),> 250 µM (inactive),701 µM (inactive),187 µM (inactive),53.7 µM (inactive),> 250 µM (inactive),217 µM (inactive),174 µM (inactive),191 µM (inactive),149 µM (inactive),204 µM (inactive),167 µM (inactive),203 µM (inactive)
